Data set [1] is described as follows: Test B: Cytotoxicity Assay (protocol of Test A, uninfected cells). In kind it is cell-based. To be noted: human, uninfected MT-4 cells, CellTiter-Glo. The protocol: Test B: Cytotoxicity Assay Compound cytotoxicity and the corresponding CC50 values was determined using the same protocol as described in the antiviral assay (Test A) except that uninfected cells were used.
For orientation: ATP-based viability assays read luminescence as a measure of living cells.

The next data set has as its system HIV-IIIb. The data set can be described thus: Test A: Antiviral Assay in MT4 Cells. The data set is classed as cell-based, HIV-1. Conditions: Human immunodeficiency virus 1, IIIB, MT4, 120 h, read-out: % inhibition at 3 μM. The procedure:
Test A: Antiviral Assay in MT4 Cells
For the antiviral assay, 40 μL of 1× test concentration of 3-fold serially diluted compound in culture medium with 10% FBS was added to each well of a 384-well plate (10 concentrations) in quadruplicate. MT-4 cells were next mixed with HIV-IIIb at an m.o.i of 0.003 for 1 hour, after which time 35 μL of virus/cell mixture (2000 cells) was immediately added to each well containing 40 μL of diluted compound. The plates were then incubated at 37° C. for 5 days. After 5 days of incubation, 25 μl of 2× concentrated CellTiter-Glo™ Reagent (catalog #G7571, Promega Biosciences, Inc., Madison, Wis.) was added to each well containing MT-4 cells. Cell lysis was carried out by incubating at room temperature for 10 min and then chemiluminescence was read.

As a reminder, the CC50 is the concentration at which the toxic effect on the cells reaches its halfway point. The inhibition is the drop in the measured response relative to a control, in per cent. In data set [1], `Cc1nc([C@H](Cc2cc(F)cc(F)c2)NC(=O)Cn2nc(C(F)(F)F)c3c2C(F)(F)[C@@H]2C[C@H]32)c(-c2cccc3c(NS(C)(=O)=O)nn(C)c23)cc1N` [Compound 45, N—((S)-1-(5-amino-6-methyl-3-(1-methyl-3-(methylsulfonamido)-1H-indazol-7-yl)pyridin-2-yl)-2-(3,5-difluorophenyl)ethyl)-2-((3bS,4aR)-5,5-difluoro-3-(trifluoromethyl)-3b,4,4a,5-tetrahydro-1H-cyclopropa[3,4]cyclopenta[1,2-c]pyrazol-1-yl)acetamide] gave a cytotoxic concentration (CC50) at 5 days of 21.5 µM. For the same compound, in the data set with HIV-IIIb, the inhibition at 3 µM is 110%.

`Cn1nc(NS(C)(=O)=O)c2cccc(-c3cc(N)c(C#N)nc3[C@H](Cc3cc(F)cc(F)c3)NC(=O)Cn3nc(C(F)(F)F)c4c3C(F)(F)[C@@H]3C[C@H]43)c21` [Compound 46F, N—((S)-1-(5-amino-6-cyano-3-(1-methyl-3-(methylsulfonamido)-1H-indazol-7-yl)pyridin-2-yl)-2-(3,5-difluorophenyl)ethyl)-2-((3bS,4aR)-5,5-difluoro-3-(trifluoromethyl)-3b,4,4a,5-tetrahydro-1H-cyclopropa[3,4]cyclopenta[1,2-c]pyrazol-1-yl)acetamide] showed a CC50 at 5 days in data set [1] of 12.5 µM. Also, in the data set with HIV-IIIb, the inhibition at 3 µM turned out to be 109%.

In data set [1], `Cc1nc([C@H](Cc2cc(F)cc(F)c2)NC(=O)Cn2nc(C(F)F)c3c2C(F)(F)[C@@H]2C[C@H]32)c(-c2ccc(Cl)c3c(NS(C)(=O)=O)nn(C)c23)cc1N` [Compound 47C, N—((S)-1-(5-amino-3-(4-chloro-1-methyl-3-(methylsulfonamido)-1H-indazol-7-yl)-6-methylpyridin-2-yl)-2-(3,5-difluorophenyl)ethyl)-2-((3bS,4aR)-3-(difluoromethyl)-5,5-difluoro-3b,4,4a,5-tetrahydro-1H-cyclopropa[3,4]cyclopenta[1,2-c]pyrazol-1-yl)acetamide] yielded a cytotoxic concentration (CC50) at 5 days of 18.1 µM. In the data set with HIV-IIIb, the inhibition at 3 µM is 107%.

Regarding `CC(=O)Nc1cc(-c2ccc(Cl)c3c(NS(C)(=O)=O)nn(C)c23)c([C@H](Cc2cc(F)cc(F)c2)NC(=O)Cn2nc(C(F)F)c3c2C(F)(F)[C@@H]2C[C@H]32)nc1C` [Compound 48, N—((S)-1-(5-acetamido-3-(4-chloro-1-methyl-3-(methylsulfonamido)-1H-indazol-7-yl)-6-methylpyridin-2-yl)-2-(3,5-difluorophenyl)ethyl)-2-((3bS,4aR)-3-(difluoromethyl)-5,5-difluoro-3b,4,4a,5-tetrahydro-1H-cyclopropa[3,4]cyclopenta[1,2-c]pyrazol-1-yl)acetamide], in data set [1], the 50% cytotoxic concentration (CC50) at 5 days was 20.7 µM. For the same compound, the inhibition at 3 µM in the data set on HIV-IIIb is 93%.

Compound `Cn1nc(NS(C)(=O)=O)c2c(Cl)ccc(-c3cc(N)cnc3[C@H](Cc3cc(F)cc(F)c3)NC(=O)Cn3nc(C(F)F)c4c3C(F)(F)[C@@H]3C[C@H]43)c21` [Compound 49C, N—((S)-1-(5-amino-3-(4-chloro-1-methyl-3-(methylsulfonamido)-1H-indazol-7-yl)pyridin-2-yl)-2-(3,5-difluorophenyl)ethyl)-2-((3bS,4aR)-3-(difluoromethyl)-5,5-difluoro-3b,4,4a,5-tetrahydro-1H-cyclopropa[3,4]cyclopenta[1,2-c]pyrazol-1-yl)acetamide] registered a CC50 at 5 days in data set [1] of 28.1 µM. In the data set on HIV-IIIb, the inhibition at 3 µM was determined as 93%.

As to `CN(C)c1cnc([C@H](Cc2cc(F)cc(F)c2)NC(=O)Cn2nc(C(F)F)c3c2C(F)(F)[C@@H]2C[C@H]32)c(-c2ccc(Cl)c3c(NS(C)(=O)=O)nn(C)c23)c1` [Compound 50, N—((S)-1-(3-(4-chloro-1-methyl-3-(methylsulfonamido)-1H-indazol-7-yl)-5-(dimethylamino)pyridin-2-yl)-2-(3,5-difluorophenyl)ethyl)-2-((3bS,4aR)-3-(difluoromethyl)-5,5-difluoro-3b,4,4a,5-tetrahydro-1H-cyclopropa[3,4]cyclopenta[1,2-c]pyrazol-1-yl)acetamide], the 50% cytotoxic concentration (CC50) at 5 days in data set [1] is 34.2 µM. Besides, the inhibition at 3 µM with HIV-IIIb came to 86%.

In turn, `CNc1cnc([C@H](Cc2cc(F)cc(F)c2)NC(=O)Cn2nc(C(F)F)c3c2C(F)(F)[C@@H]2C[C@H]32)c(-c2ccc(Cl)c3c(NS(C)(=O)=O)nn(C)c23)c1` [Compound 51, N—((S)-1-(3-(4-chloro-1-methyl-3-(methylsulfonamido)-1H-indazol-7-yl)-5-(methylamino)pyridin-2-yl)-2-(3,5-difluorophenyl)ethyl)-2-((3bS,4aR)-3-(difluoromethyl)-5,5-difluoro-3b,4,4a,5-tetrahydro-1H-cyclopropa[3,4]cyclopenta[1,2-c]pyrazol-1-yl)acetamide] showed a half-maximal cytotoxic concentration (CC50) at 5 days in data set [1] of 16.6 µM. Moreover, the inhibition at 3 µM in the data set on HIV-IIIb came out at 79%.

For `Cn1nc(NS(C)(=O)=O)c2c(Cl)ccc(-c3cc(N)cnc3[C@H](Cc3cc(F)cc(F)c3)NC(=O)Cn3nc(C(F)(F)F)c4c3C(F)(F)[C@@H]3C[C@H]43)c21` [Compound 52, N—((S)-1-(5-amino-3-(4-chloro-1-methyl-3-(methylsulfonamido)-1H-indazol-7-yl)pyridin-2-yl)-2-(3,5-difluorophenyl)ethyl)-2-((3bS,4aR)-5,5-difluoro-3-(trifluoromethyl)-3b,4,4a,5-tetrahydro-1H-cyclopropa[3,4]cyclopenta[1,2-c]pyrazol-1-yl)acetamide], in data set [1], the midpoint of cytotoxicity, the CC50 at 5 days, lay at 21.5 µM. Further, the inhibition at 3 µM with HIV-IIIb came out at 104%.

In the case of `Cn1nc(NS(C)(=O)=O)c2c(Cl)ccc(-c3cc(N)c(Cl)nc3[C@H](Cc3cc(F)cc(F)c3)NC(=O)Cn3nc(C(F)F)c4c3C(F)(F)[C@@H]3C[C@H]43)c21` [Compound 53B, N—((S)-1-(5-amino-6-chloro-3-(4-chloro-1-methyl-3-(methylsulfonamido)-1H-indazol-7-yl)pyridin-2-yl)-2-(3,5-difluorophenyl)ethyl)-2-((3bS,4aR)-3-(difluoromethyl)-5,5-difluoro-3b,4,4a,5-tetrahydro-1H-cyclopropa[3,4]cyclopenta[1,2-c]pyrazol-1-yl)acetamide], the CC50 at 5 days in data set [1] is 15 µM. For the same compound, the inhibition at 3 µM in the data set with HIV-IIIb worked out at 91%.

Consider `Cn1nc(NS(C)(=O)=O)c2c(Cl)ccc(-c3cc(N)c(Cl)nc3[C@H](Cc3cc(F)cc(F)c3)NC(=O)Cn3nc(C(F)(F)F)c4c3C(F)(F)[C@@H]3C[C@H]43)c21` [Compound 54, N—((S)-1-(5-amino-6-chloro-3-(4-chloro-1-methyl-3-(methylsulfonamido)-1H-indazol-7-yl)pyridin-2-yl)-2-(3,5-difluorophenyl)ethyl)-2-((3bS,4aR)-5,5-difluoro-3-(trifluoromethyl)-3b,4,4a,5-tetrahydro-1H-cyclopropa[3,4]cyclopenta[1,2-c]pyrazol-1-yl)acetamide], for which the CC50 at 5 days in data set [1] is 12.1 µM. Moreover, the inhibition at 3 µM in the data set on HIV-IIIb was determined as 92%.

Turning to `CSc1cnc([C@H](Cc2cc(F)cc(F)c2)NC(=O)Cn2nc(C(F)F)c3c2C(F)(F)[C@@H]2C[C@H]32)c(-c2cccc3c(NS(C)(=O)=O)nn(C)c23)n1` [Compound 55G, 2-((3bS,4aR)-3-(difluoromethyl)-5,5-difluoro-3b,4,4a,5-tetrahydro-1H-cyclopropa[3,4]cyclopenta[1,2-c]pyrazol-1-yl)-N—((S)-2-(3,5-difluorophenyl)-1-(3-(1-methyl-3-(methylsulfonamido)-1H-indazol-7-yl)-5-(methylthio)pyrazin-2-yl)ethyl)acetamide], in data set [1], it took 22.1 µM to reach half-maximal cytotoxicity (CC50 at 5 days). For the same compound, in the data set with HIV-IIIb, the inhibition at 3 µM stood at 107%.

`Cn1nc(NS(C)(=O)=O)c2c(Cl)ccc(-c3ccc(NCCO)nc3[C@H](Cc3cc(F)cc(F)c3)NC(=O)Cn3nc(C(F)(F)F)c4c3C(F)(F)[C@@H]3C[C@H]43)c21` [Compound 56] had a CC50 at 5 days in data set [1] of 24.3 µM. In addition, in the data set on HIV-IIIb, the inhibition at 3 µM stood at 95%.

In turn, `CN(CCO)c1ccc(-c2ccc(Cl)c3c(NS(C)(=O)=O)nn(C)c23)c([C@H](Cc2cc(F)cc(F)c2)NC(=O)Cn2nc(C(F)F)c3c2C(F)(F)[C@@H]2C[C@H]32)n1` [Compound 57G, N—((S)-1-(3-(4-chloro-1-methyl-3-(methylsulfonamido)-1H-indazol-7-yl)-6-((2-hydroxyethyl)(methyl)amino)pyridin-2-yl)-2-(3,5-difluorophenyl)ethyl)-2-((3bS,4aR)-3-(difluoromethyl)-5,5-difluoro-3b,4,4a,5-tetrahydro-1H-cyclopropa[3,4]cyclopenta[1,2-c]pyrazol-1-yl)acetamide] returned a 50% cytotoxic concentration (CC50) at 5 days in data set [1] of 29.5 µM. The inhibition at 3 µM with HIV-IIIb stood at 81%.

In data set [1], `CN(CCO)c1ccc(-c2ccc(Cl)c3c(NS(C)(=O)=O)nn(C)c23)c([C@H](Cc2cc(F)cc(F)c2)NC(=O)Cn2nc(C(F)(F)F)c3c2C(F)(F)[C@@H]2C[C@H]32)n1` [Compound 58, N—((S)-1-(3-(4-chloro-1-methyl-3-(methylsulfonamido)-1H-indazol-7-yl)-6-((2-hydroxyethyl)(methyl)amino)pyridin-2-yl)-2-(3,5-difluorophenyl)ethyl)-2-((3bS,4aR)-5,5-difluoro-3-(trifluoromethyl)-3b,4,4a,5-tetrahydro-1H-cyclopropa[3,4]cyclopenta[1,2-c]pyrazol-1-yl)acetamide] gave a CC50 at 5 days of 12.8 µM. Further, in the data set with HIV-IIIb, the inhibition at 3 µM turned out to be 86%.

Source of the values: patent US9050344B2, “Therapeutic compounds” (Gilead Sciences, Inc., priority 2013, dated 2015).
